ChEMBL document CHEMBL1149774, “Synthesis of N-(5,7-diamino-3-phenyl-quinoxalin-2-yl)-3,4,5-substituted anilines and N-[4[(5,7-diamino-3-phenylquinoxalin-2-yl)amino]benzoyl]-l-glutamic acid diethyl ester: evaluation of in vitro anti-cancer and anti-folate activities” (Eur J Med Chem, 2008)

Columns and labels:
Type in all cases: functional
OVCAR-8 = assay: Growth inhibition of human OVCAR8 cells after 48 hrs by SRB staining method; details: OVCAR-8, 48 h
TK-10 = assay: Growth inhibition of human TK10 cells after 48 hrs by SRB staining method; details: TK-10, 48 h
SR = assay: Growth inhibition of human SR cells after 48 hrs by SRB staining method
OVCAR-4 = assay: Growth inhibition of human OVCAR4 cells after 48 hrs by SRB staining method; details: OVCAR-4, 48 h
NCI/ADR-RES = assay: Growth inhibition of human NCI/ADR-RES cells after 48 hrs by SRB staining method
OVCAR-5 = assay: Growth inhibition of human OVCAR5 cells after 48 hrs by SRB staining method; details: OVCAR-5, 48 h
HL-60 = assay: Growth inhibition of human HL60 cells after 48 hrs by SRB staining method; details: HL-60, 48 h
SK-OV-3 = assay: Growth inhibition of human SKOV3 cells after 48 hrs by SRB staining method; details: SK-OV-3, 48 h
U-251 = assay: Growth inhibition of human U251 cells after 48 hrs by SRB staining method; details: U-251, 48 h
HOP-62 = assay: Growth inhibition of human HOP62 cells after 48 hrs by SRB staining method; details: HOP-62, 48 h
NCI-H522 = assay: Growth inhibition of human NCI-H522 cells after 48 hrs by SRB staining method; details: NCI-H522, 48 h
786-0 = assay: Growth inhibition of human 786-0 cells after 48 hrs by SRB staining method; details: 786-0, 48 h
OVCAR-3 = assay: Growth inhibition of human OVCAR-3 cells after 48 hrs by SRB staining method; details: OVCAR-3, 48 h
HCT-116 = assay: Growth inhibition of human HCT116 cells after 48 hrs by SRB staining method; details: HCT-116, 48 h
NCI-H23 = assay: Growth inhibition of human NCI-H23 cells after 48 hrs by SRB staining method; details: NCI-H23, 48 h
NCI-H226 = assay: Growth inhibition of human NCI-H226 cells after 48 hrs by SRB staining method; details: NCI-H226, 48 h
SN12C = assay: Growth inhibition of human SN12C cells after 48 hrs by SRB staining method
M14 = assay: Growth inhibition of human M14 cells after 48 hrs by SRB staining method; details: M14, 48 h
UACC-62 = assay: Growth inhibition of human UACC62 cells after 48 hrs by SRB staining method; details: UACC-62, 48 h
HCT-15 = assay: Growth inhibition of human HCT15 cells after 48 hrs by SRB staining method; details: HCT-15, 48 h
NCI-H322M = assay: Growth inhibition of human NCI-H322M cells after 48 hrs by SRB staining method
SK-MEL-5 = assay: Growth inhibition of human SK-MEL-5 cells after 48 hrs by SRB staining method; details: SK-MEL-5, 48 h
MCF7 = assay: Growth inhibition of human MCF7 cells after 48 hrs by SRB staining method; details: MCF7, 48 h
KM12 = assay: Growth inhibition of human KM12 cells after 48 hrs by SRB staining method; details: KM12, 48 h
RXF 393 = assay: Growth inhibition of human RXF393 cells after 48 hrs by SRB staining method; details: RXF 393, 48 h
SF-268 = assay: Growth inhibition of human SF268 cells after 48 hrs by SRB staining method; details: SF-268, 48 h
EKVX = assay: Growth inhibition of human EKVX cells after 48 hrs by SRB staining method
LOX IMVI = assay: Growth inhibition of human LOX IMVI cells after 48 hrs by SRB staining method
SF-295 = assay: Growth inhibition of human SF295 cells after 48 hrs by SRB staining method; details: SF-295, 48 h
UACC-257 = assay: Growth inhibition of human UACC257 cells after 48 hrs by SRB staining method; details: UACC-257, 48 h
MDA-MB-435 = assay: Growth inhibition of human MDA-MB-435 cells after 48 hrs by SRB staining method; details: MDA-MB-435, 48 h
DU-145 = assay: Growth inhibition of human DU145 cells after 48 hrs by SRB staining method; details: DU-145, 48 h
NCI-H460 = assay: Growth inhibition of human NCI-H460 cells after 48 hrs by SRB staining method; details: NCI-H460, 48 h
[1] = read-out: pLC50 (the source's name) (converted)

`Nc1cc(N)c2nc(-c3ccccc3)c(Nc3ccc(Cl)c(Cl)c3)nc2c1` was tested, and the GI50 (OVCAR-8) was 5.13 µM, the CC50 (OVCAR-8; [1]) was > 100 µM and the TGI (OVCAR-8; read-out: pTGI (converted)) was 79.4 µM. For the same compound, the GI50 (TK-10) was 13.8 µM, the CC50 (TK-10; [1]) was 66.1 µM and the TGI (TK-10; read-out: pTGI (converted)) was 30.2 µM. For the same compound, the GI50 (SR) was 2.57 µM, the CC50 (SR; [1]) was > 100 µM and the TGI (SR; read-out: pTGI (converted)) was 15.5 µM. The GI50 (OVCAR-4) was 11.2 µM, the LC50 (OVCAR-4) was > 100 µM and the TGI (OVCAR-4; read-out: pTGI (converted)) was 47.9 µM. The GI50 (NCI/ADR-RES) was 15.5 µM, the CC50 (NCI/ADR-RES; [1]) was > 100 µM and the TGI (NCI/ADR-RES; read-out: pTGI (converted)) was 55 µM. It also gave a GI50 (OVCAR-5) of 28.2 µM, an LC50 (OVCAR-5) of 85.1 µM and a TGI (OVCAR-5; read-out: pTGI (converted)) of 49 µM. The GI50 (HL-60) was 2.57 µM, the CC50 (HL-60; [1]) was > 100 µM and the TGI (HL-60; read-out: pTGI (converted)) was 72.4 µM. For the same compound, the GI50 (SK-OV-3) was 13.8 µM, the CC50 (SK-OV-3; [1]) was 70.8 µM and the TGI (SK-OV-3; read-out: pTGI (converted)) was 31.6 µM. The GI50 (U-251) was 4.68 µM, the LC50 (50% lethal concentration) (U-251) was > 100 µM and the TGI (U-251; read-out: pTGI (converted)) was > 100 µM. For the same compound, the GI50 (HOP-62) was 17.4 µM, the LC50 (HOP-62) was 81.3 µM and the TGI (HOP-62; read-out: pTGI (converted)) was 38 µM. The GI50 (NCI-H522) was 5.25 µM, the LC50 (NCI-H522) was 69.2 µM and the TGI (NCI-H522; read-out: pTGI (converted)) was 21.9 µM. For the same compound, the GI50 (786-0) was 14.8 µM, the CC50 (786-0; [1]) was 93.3 µM and the TGI (786-0; read-out: pTGI (converted)) was 37.2 µM. It also gave a GI50 (OVCAR-3) of 2.95 µM, an LC50 (OVCAR-3) of 37.2 µM and a TGI (OVCAR-3; read-out: pTGI (converted)) of 10 µM. The GI50 (HCT-116) was 10.7 µM, the LC50 (HCT-116) was > 100 µM and the TGI (HCT-116; read-out: pTGI (converted)) was 52.5 µM. The GI50 (NCI-H23) was 19.1 µM, the LC50 (NCI-H23) was > 100 µM and the TGI (NCI-H23; read-out: pTGI (converted)) was 55 µM. The GI50 (NCI-H226) was 17.4 µM, the LC50 (NCI-H226) was 81.3 µM and the TGI (NCI-H226; read-out: pTGI (converted)) was 38 µM. For the same compound, the GI50 (SN12C) was 12.6 µM, the CC50 (SN12C; [1]) was 79.4 µM and the TGI (SN12C; read-out: pTGI (converted)) was 31.6 µM. The GI50 (M14) was 14.8 µM, the LC50 (M14) was > 100 µM and the TGI (M14; read-out: pTGI (converted)) was 60.3 µM. For the same compound, the GI50 (UACC-62) was 13.2 µM, the LC50 (UACC-62) was 67.6 µM and the TGI (UACC-62; read-out: pTGI (converted)) was 30.2 µM. The GI50 (HCT-15) was 21.4 µM, the LC50 (HCT-15) was > 100 µM and the TGI (HCT-15; read-out: pTGI (converted)) was > 100 µM. The LC50 (NCI-H322M) was 63.1 µM, the GI50 (SK-MEL-5) was 11 µM and the LC50 (SK-MEL-5) was 58.9 µM. For the same compound, the TGI (SK-MEL-5; read-out: pTGI (converted)) was 25.7 µM, the GI50 (MCF7) was 5.01 µM and the CC50 (MCF7; [1]) was 75.9 µM. The TGI (MCF7; read-out: pTGI (converted)) was 20.9 µM, the GI50 (KM12) was 5.89 µM and the LC50 (KM12) was 87.1 µM. The TGI (KM12; read-out: pTGI (converted)) was 24.5 µM, the GI50 (RXF 393) was 6.17 µM and the CC50 (RXF 393; [1]) was > 100 µM. For the same compound, the TGI (RXF 393; read-out: pTGI (converted)) was 30.9 µM, the GI50 (SF-268) was 12 µM and the CC50 (SF-268; [1]) was 67.6 µM. The TGI (SF-268; read-out: pTGI (converted)) was 28.8 µM, the GI50 (EKVX) was 3.8 µM and the CC50 (EKVX; [1]) was 47.9 µM. The TGI (EKVX; read-out: pTGI (converted)) was 16.2 µM, the GI50 (LOX IMVI) was 4.37 µM and the LC50 (LOX IMVI) was > 100 µM. The TGI (LOX IMVI; read-out: pTGI (converted)) was > 100 µM, the GI50 (SF-295) was 12.3 µM and the LC50 (SF-295) was 63.1 µM. The TGI (SF-295; read-out: pTGI (converted)) was 28.2 µM, the GI50 (UACC-257) was 11.5 µM and the LC50 (UACC-257) was 69.2 µM. The TGI (UACC-257; read-out: pTGI (converted)) was 28.2 µM, the GI50 (MDA-MB-435) was 2.14 µM and the CC50 (MDA-MB-435; [1]) was 9.77 µM. The TGI (MDA-MB-435; read-out: pTGI (converted)) was 45.7 µM, the GI50 (DU-145) was 16.6 µM and the CC50 (DU-145; [1]) was 63.1 µM. The TGI (DU-145; read-out: pTGI (converted)) was 32.4 µM, the GI50 (NCI-H460) was 1.58 µM and the LC50 (concentration killing 50% of cells) (NCI-H460) was 56.2 µM. The TGI (NCI-H460; read-out: pTGI (converted)) was 22.9 µM.
